According to paper PMC7156458, “Synthetic biology based construction of biological activity-related library of fungal decalin-containing diterpenoid pyrones” (Nature Communications, 2020):

Target: Aβ42 (Homo sapiens, UniProt P05067)
Assay: Th-T (thioflavin-T) assay of Aβ42 aggregation
Type: biochemical
Details: for Th-T fluorescence of Aβ42 (sheet Fig. 7a), mean of three wells: head suffix _50 (concentration 50); for Th-T assay plate reading, mean of three wells (Supplementary Fig. 47): source data, Ab alone and No Ab as controls; for Th-T fluorescence, mean of three wells: Supplementary Fig. 47 source data

Aβ42, sequence (P05067 672-713): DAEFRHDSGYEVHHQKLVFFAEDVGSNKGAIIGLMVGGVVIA

In the case of `C=C1CCC2C(C)(CCC=C(C)C)C(O)CCC2(C)C1Cc1c(OC)oc(C)c(C(=O)OC)c1=O` (stereo not drawn) [Compound 14], the “Th-T fluorescence of Aβ42 (sheet Fig. 7a), mean of three wells” value (“Th-T fluorescence of Aβ42” below) (reading M73) is reported as 2.8491, the “Th-T fluorescence of Aβ42” value (reading M74) is reported as 2.743 and the “Th-T fluorescence of Aβ42” value (reading M75) is reported as 2.678. The “Th-T fluorescence of Aβ42” value (reading M76) was 2.6047, the “Th-T fluorescence of Aβ42” value (reading M77) was 2.524 and the “Th-T fluorescence of Aβ42” value (reading M78) was 2.476. For the same compound, the “Th-T fluorescence of Aβ42” value (reading M79) was 2.356, the “Th-T fluorescence of Aβ42” value (reading M80) was 2.329 and the “Th-T fluorescence of Aβ42” value (reading M81) was 2.257. The “Th-T fluorescence of Aβ42” value (reading M82) was 2.201, the “Th-T fluorescence of Aβ42” value (reading M83) was 2.154 and the “Th-T fluorescence of Aβ42” value (reading M84) was 2.095. For the same compound, the “Th-T assay plate reading, mean of three wells (Supplementary Fig. 47)” value (“Th-T assay plate reading, mean” for short) (measurement M1) was 0.2816, the “Th-T assay plate reading, mean” value (measurement M2) was 0.2424 and the “Th-T assay plate reading, mean” value (measurement M3) was 0.24. For the same compound, the “Th-T assay plate reading, mean” value (measurement M4) was 0.2537, the “Th-T assay plate reading, mean” value (measurement M5) was 0.2619 and the “Th-T assay plate reading, mean” value (measurement M6) was 0.2823. The “Th-T assay plate reading, mean” value (measurement M7) was 0.2966, the “Th-T assay plate reading, mean” value (measurement M8) was 0.3078 and the “Th-T assay plate reading, mean” value (measurement M9) was 0.3225. For the same compound, the “Th-T assay plate reading, mean” value (measurement M10) was 0.3472, the “Th-T assay plate reading, mean” value (measurement M11) was 0.3856 and the “Th-T assay plate reading, mean” value (measurement M12) was 0.4563. The “Th-T assay plate reading, mean” value (measurement M13) was 0.5559, the “Th-T assay plate reading, mean” value (measurement M14) was 0.6968 and the “Th-T assay plate reading, mean” value (measurement M15) was 0.8869. The “Th-T assay plate reading, mean” value (measurement M16) was 1.062, the “Th-T fluorescence, mean of three wells (Fig. 7a)” value (“Th-T fluorescence … (Fig. 7a)” for short) (reading M107, compound at 10 (head suffix _10)) was 2.856 and the “Th-T fluorescence … (Fig. 7a)” value (reading M107, compound at 20 (head suffix _20)) was 1.717. The “Th-T fluorescence … (Fig. 7a)” value (reading M107, compound at 50 (head suffix _50)) was 1.263, the “Th-T fluorescence … (Fig. 7a)” value (reading M108, compound at 10 (head suffix _10)) was 2.848 and the “Th-T fluorescence … (Fig. 7a)” value (reading M108, compound at 20 (head suffix _20)) was 1.693. For the same compound, the “Th-T fluorescence … (Fig. 7a)” value (reading M108, compound at 50 (head suffix _50)) was 1.239, the “Th-T fluorescence … (Fig. 7a)” value (reading M109, compound at 10 (head suffix _10)) was 2.86 and the “Th-T fluorescence … (Fig. 7a)” value (reading M109, compound at 20 (head suffix _20)) was 1.668. For the same compound, the “Th-T fluorescence … (Fig. 7a)” value (reading M109, compound at 50 (head suffix _50)) was 1.221, the “Th-T fluorescence … (Fig. 7a)” value (reading M110, compound at 10 (head suffix _10)) was 2.89 and the “Th-T fluorescence … (Fig. 7a)” value (reading M110, compound at 20 (head suffix _20)) was 1.691. The “Th-T fluorescence … (Fig. 7a)” value (reading M110, compound at 50 (head suffix _50)) was 1.198, the “Th-T fluorescence … (Fig. 7a)” value (reading M111, compound at 10 (head suffix _10)) was 2.887 and the “Th-T fluorescence … (Fig. 7a)” value (reading M111, compound at 20 (head suffix _20)) was 1.674. The “Th-T fluorescence … (Fig. 7a)” value (reading M111, compound at 50 (head suffix _50)) was 1.171, the “Th-T fluorescence … (Fig. 7a)” value (reading M112, compound at 10 (head suffix _10)) was 2.867 and the “Th-T fluorescence … (Fig. 7a)” value (reading M112, compound at 20 (head suffix _20)) was 1.668. For the same compound, the “Th-T fluorescence … (Fig. 7a)” value (reading M112, compound at 50 (head suffix _50)) was 1.153, the “Th-T fluorescence … (Fig. 7a)” value (reading M113, compound at 10 (head suffix _10)) was 2.843 and the “Th-T fluorescence … (Fig. 7a)” value (reading M113, compound at 20 (head suffix _20)) was 1.686. For the same compound, the “Th-T fluorescence … (Fig. 7a)” value (reading M113, compound at 50 (head suffix _50)) was 1.142, the “Th-T fluorescence … (Fig. 7a)” value (reading M114, compound at 10 (head suffix _10)) was 2.88 and the “Th-T fluorescence … (Fig. 7a)” value (reading M114, compound at 20 (head suffix _20)) was 1.678. For the same compound, the “Th-T fluorescence … (Fig. 7a)” value (reading M114, compound at 50 (head suffix _50)) was 1.107, the “Th-T fluorescence … (Fig. 7a)” value (reading M115, compound at 10 (head suffix _10)) was 2.899 and the “Th-T fluorescence … (Fig. 7a)” value (reading M115, compound at 20 (head suffix _20)) was 1.649. For the same compound, the “Th-T fluorescence … (Fig. 7a)” value (reading M115, compound at 50 (head suffix _50)) was 1.096, the “Th-T fluorescence … (Fig. 7a)” value (reading M116, compound at 10 (head suffix _10)) was 2.891 and the “Th-T fluorescence … (Fig. 7a)” value (reading M116, compound at 20 (head suffix _20)) was 1.656. For the same compound, the “Th-T fluorescence … (Fig. 7a)” value (reading M116, compound at 50 (head suffix _50)) was 1.094, the “Th-T fluorescence … (Fig. 7a)” value (reading M117, compound at 10 (head suffix _10)) was 2.891 and the “Th-T fluorescence … (Fig. 7a)” value (reading M117, compound at 20 (head suffix _20)) was 1.6485. For the same compound, the “Th-T fluorescence … (Fig. 7a)” value (reading M117, compound at 50 (head suffix _50)) was 1.063, the “Th-T fluorescence … (Fig. 7a)” value (reading M118, compound at 10 (head suffix _10)) was 2.882 and the “Th-T fluorescence … (Fig. 7a)” value (reading M118, compound at 20 (head suffix _20)) was 1.636. The “Th-T fluorescence … (Fig. 7a)” value (reading M118, compound at 50 (head suffix _50)) was 1.027, the “Th-T fluorescence … (Fig. 7a)” value (reading M119, compound at 10 (head suffix _10)) was 2.895 and the “Th-T fluorescence … (Fig. 7a)” value (reading M119, compound at 20 (head suffix _20)) was 1.645. For the same compound, the “Th-T fluorescence … (Fig. 7a)” value (reading M119, compound at 50 (head suffix _50)) was 1.02, the “Th-T fluorescence … (Fig. 7a)” value (reading M120, compound at 10 (head suffix _10)) was 2.912 and the “Th-T fluorescence … (Fig. 7a)” value (reading M120, compound at 20 (head suffix _20)) was 1.644. The “Th-T fluorescence … (Fig. 7a)” value (reading M120, compound at 50 (head suffix _50)) was 1.015, the “Th-T fluorescence … (Fig. 7a)” value (reading M121, compound at 10 (head suffix _10)) was 2.89 and the “Th-T fluorescence … (Fig. 7a)” value (reading M121, compound at 20 (head suffix _20)) was 1.621. The “Th-T fluorescence … (Fig. 7a)” value (reading M121, compound at 50 (head suffix _50)) was 1.008, the “Th-T fluorescence … (Fig. 7a)” value (reading M122, compound at 10 (head suffix _10)) was 2.911 and the “Th-T fluorescence … (Fig. 7a)” value (reading M122, compound at 20 (head suffix _20)) was 1.5939. The “Th-T fluorescence … (Fig. 7a)” value (reading M122, compound at 50 (head suffix _50)) was 0.9934, the “Th-T fluorescence … (Fig. 7a)” value (reading M123, compound at 10 (head suffix _10)) was 2.8989 and the “Th-T fluorescence … (Fig. 7a)” value (reading M123, compound at 20 (head suffix _20)) was 1.589. For the same compound, the “Th-T fluorescence … (Fig. 7a)” value (reading M123, compound at 50 (head suffix _50)) was 0.9605, the “Th-T fluorescence … (Fig. 7a)” value (reading M124, compound at 10 (head suffix _10)) was 2.906 and the “Th-T fluorescence … (Fig. 7a)” value (reading M124, compound at 20 (head suffix _20)) was 1.657. For the same compound, the “Th-T fluorescence … (Fig. 7a)” value (reading M124, compound at 50 (head suffix _50)) was 0.9345, the “Th-T fluorescence … (Fig. 7a)” value (reading M125, compound at 10 (head suffix _10)) was 2.918 and the “Th-T fluorescence … (Fig. 7a)” value (reading M125, compound at 20 (head suffix _20)) was 1.601. For the same compound, the “Th-T fluorescence … (Fig. 7a)” value (reading M125, compound at 50 (head suffix _50)) was 0.9471, the “Th-T fluorescence … (Fig. 7a)” value (reading M126, compound at 10 (head suffix _10)) was 2.913 and the “Th-T fluorescence … (Fig. 7a)” value (reading M126, compound at 20 (head suffix _20)) was 1.6231. For the same compound, the “Th-T fluorescence … (Fig. 7a)” value (reading M126, compound at 50 (head suffix _50)) was 0.9219, the “Th-T fluorescence … (Fig. 7a)” value (reading M127, compound at 10 (head suffix _10)) was 2.92 and the “Th-T fluorescence … (Fig. 7a)” value (reading M127, compound at 20 (head suffix _20)) was 1.639. For the same compound, the “Th-T fluorescence … (Fig. 7a)” value (reading M127, compound at 50 (head suffix _50)) was 0.9074, the “Th-T fluorescence … (Fig. 7a)” value (reading M128, compound at 10 (head suffix _10)) was 2.916 and the “Th-T fluorescence … (Fig. 7a)” value (reading M128, compound at 20 (head suffix _20)) was 1.631. The “Th-T fluorescence … (Fig. 7a)” value (reading M128, compound at 50 (head suffix _50)) was 0.8816, the “Th-T fluorescence, mean of three wells” value (time-course reading M97) was 1.587 and the “Th-T fluorescence, mean of three wells” value (time-course reading M98) was 1.593. For the same compound, the “Th-T fluorescence, mean of three wells” value (time-course reading M99) was 1.591, the “Th-T fluorescence, mean of three wells” value (time-course reading M100) was 1.596 and the “Th-T fluorescence, mean of three wells” value (time-course reading M101) was 1.605. The “Th-T fluorescence, mean of three wells” value (time-course reading M102) was 1.603, the “Th-T fluorescence, mean of three wells” value (time-course reading M103) was 1.613 and the “Th-T fluorescence, mean of three wells” value (time-course reading M104) was 1.605. For the same compound, the “Th-T fluorescence, mean of three wells” value (time-course reading M105) was 1.614, the “Th-T fluorescence, mean of three wells” value (time-course reading M106) was 1.61 and the “Th-T fluorescence, mean of three wells” value (time-course reading M107) was 1.627. For the same compound, the “Th-T fluorescence, mean of three wells” value (time-course reading M108) was 1.622, the “Th-T fluorescence, mean of three wells” value (time-course reading M109) was 1.637 and the “Th-T fluorescence, mean of three wells” value (time-course reading M110) was 1.6366. For the same compound, the “Th-T fluorescence, mean of three wells” value (time-course reading M111) was 1.648, the “Th-T fluorescence, mean of three wells” value (time-course reading M112) was 1.658 and the “Th-T fluorescence, mean of three wells” value (time-course reading M113) was 1.641. For the same compound, the “Th-T fluorescence, mean of three wells” value (time-course reading M114) was 1.648, the “Th-T fluorescence, mean of three wells” value (time-course reading M115) was 1.646 and the “Th-T fluorescence, mean of three wells” value (time-course reading M116) was 1.651.
